For 53 molecules, EC50 results are on record in PubChem BioAssay AID720643 (The Scripps Research Institute Molecular Screening Center, 2013).

Active and inactive are the calls of the source.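 How the source made its calls: active means EC50 of 10 µM or lower; inactive means EC50 above 10 µM.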 Where only a bound is given, the exact number is not on record here.

The test addresses 5-hydroxytryptamine receptor 2A (Mus musculus) (UniProt P35363). Nature of the test: agonist EC50 at mouse 5-HT2A receptor – cell-based, luminescence, CHO-K1, powder samples, dose response, late-stage follow-up (AID 720643). To be noted: CHO-K1 mHTR2A beta-arrestin PathHunter luminescence.

Chain of 5-hydroxytryptamine receptor 2A (Mus musculus) (P35363 whole entry, looked up): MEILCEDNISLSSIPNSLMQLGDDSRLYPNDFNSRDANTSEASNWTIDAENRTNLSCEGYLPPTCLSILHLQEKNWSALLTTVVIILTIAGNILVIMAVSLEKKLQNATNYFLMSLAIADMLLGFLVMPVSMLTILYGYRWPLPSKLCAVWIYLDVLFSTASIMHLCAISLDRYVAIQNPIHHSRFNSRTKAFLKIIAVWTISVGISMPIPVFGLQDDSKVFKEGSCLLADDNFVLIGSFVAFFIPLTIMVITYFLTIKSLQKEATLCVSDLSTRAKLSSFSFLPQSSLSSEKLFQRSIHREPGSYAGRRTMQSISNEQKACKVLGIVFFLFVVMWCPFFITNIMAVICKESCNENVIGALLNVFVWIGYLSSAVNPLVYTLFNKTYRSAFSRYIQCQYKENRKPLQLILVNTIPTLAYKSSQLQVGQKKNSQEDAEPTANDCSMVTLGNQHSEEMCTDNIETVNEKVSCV

As to `Cc1ccsc1CN1CCN(c2ccccn2)CC1`, the EC50 (in general, the concentration at which the effect is half-maximal) was > 76.1 µM (inactive).
In the case of `CCOc1ccc(NC(=O)CCN2CCN(c3ccccc3F)CC2)cc1` it was > 76.1 µM (inactive); in that of `Clc1ccccc1CN1CCN(c2ccccc2)CC1`, > 76.1 µM (inactive).
For `Fc1cccc(CN2CCN(c3ncccn3)CC2)c1`, the EC50 is > 76.1 µM (inactive).
In the case of `NC[C@@H]1O[C@H](C23CC4CC(CC(C4)C2)C3)Cc2c1ccc(O)c2O`, the EC50 was > 76.1 µM (inactive).
Regarding `CCCN(CCC)C1CCc2cccc(O)c2C1` (stereo not drawn), the EC50 is > 76.1 µM (inactive).
Consider `CCOC(=O)C1CCN(Cc2cccc(Oc3ccc(Cl)cc3)c2)CC1`, for which the EC50 was > 76.1 µM (inactive).
On to `CCCN1CCC[C@H](c2cccc(O)c2)C1`, for which the EC50 was > 76.1 µM (inactive).
As for `Clc1ccc(CN2CCN(c3ncccn3)CC2)cc1`, the EC50 was > 76.1 µM (inactive).
As to `Fc1ccccc1CN1CCN(c2ncccn2)CC1`, the EC50 is > 76.1 µM (inactive).
In the case of `COc1ccc(CN2CCN(c3ccccn3)CC2)c(OC)c1` it was > 76.1 µM (inactive); in that of `COc1ccc(CN2CCN(c3ncccn3)CC2)c(C)c1C`, > 76.1 µM (inactive); in that of `OC(COc1ccc2cc(Br)ccc2c1)CN1CCN(c2ccccn2)CC1` (stereo not drawn), > 76.1 µM (inactive).
`Cc1ccc(CN2CCN(c3ncccn3)CC2)c(C)c1`: the EC50 was > 76.1 µM (inactive).
In the case of `CC(C)C[C@H]1C(=O)N2CCC[C@H]2[C@]2(O)O[C@](NC(=O)[C@@H]3C=C4c5cccc6[nH]c(Br)c(c56)CC4N(C)C3)(C(C)C)C(=O)N12` (stereo partly drawn) it was > 76.1 µM (inactive); in that of `CC(=O)N1CCC(N2CCN(c3ccccc3F)CC2)CC1`, > 76.1 µM (inactive); in that of `c1ccc(COc2ccc(CN3CCN(c4ccccn4)CC3)cc2)cc1`, > 76.1 µM (inactive).
On to `O=C(c1ccco1)N1CCN(Cc2ccc(Cl)cc2)CC1`, for which the EC50 was > 76.1 µM (inactive).
Turning to `O=C(CN1CCN(c2ccccn2)CC1)Nc1ccc(Oc2ccccc2)cc1`, the EC50 was > 76.1 µM (inactive).
Turning to `c1ccc(N2CCN(Cc3ccsc3)CC2)nc1`, the EC50 was > 76.1 µM (inactive).
As to `Cn1cc(C(F)(F)F)nc1-c1ccc(OCC(O)CNCCOc2ccc(O)c(C(N)=O)c2)cc1` (stereo not drawn), the EC50 was > 76.1 µM (inactive).
For `Clc1ccc(CN2CCN(c3ncccn3)CC2)cc1Cl`, the EC50 was > 76.1 µM (inactive).
For `Oc1ccc(CN2CCN(c3ncccn3)CC2)cc1`, the EC50 was > 76.1 µM (inactive).
Turning to `Brc1ccc(CN2CCN(c3ccccn3)CC2)s1`, the EC50 is > 76.1 µM (inactive).
With `COc1ccc(CN2CCN(c3ncccn3)CC2)c(OC)c1`, the EC50 is > 76.1 µM (inactive).
`COc1ccc(CC2(CO)CCN(Cc3cc4ccccc4o3)CC2)cc1`: the EC50 was > 76.1 µM (inactive).
For the molecule `OCC1(Cc2cccc(C(F)(F)F)c2)CCN(Cc2cc3ccccc3o2)CC1`, the EC50 was > 76.1 µM (inactive).
`CC1CC(C)CN(CCOc2cccc(Cl)c2Cl)C1` (stereo not drawn): the EC50 was > 76.1 µM (inactive).
The same measure for `C=CCN1CCc2nc(N)sc2CC1`: > 76.1 µM (inactive).
The same measure for `CCOC(=O)N1CCN(Cc2ccc(OCC(O)CN3CCCCC3)cc2)CC1` (stereo not drawn): > 76.1 µM (inactive); for `COC(=O)C1=C(Cn2cnc3ccccc32)NC(=O)NC1c1cc(C)ccc1C` (stereo not drawn): 3.47 µM; for `Cc1cccc(CN2CCN(c3ncccn3)CC2)c1`: > 76.1 µM (inactive).
Regarding `CCc1ccc(CN2CCN(C(=O)c3ccco3)CC2)cc1`, the EC50 was > 76.1 µM (inactive).
Consider `CCOc1cc(CN2CCN(C(=O)c3ccco3)CC2)ccc1OC`, for which the EC50 was > 76.1 µM (inactive).
`COc1ccccc1C(=O)NCCN1CCN(c2ccccc2)CC1`: the EC50 is > 76.1 µM (inactive).
With `CCn1c(=O)cc(SCC(=O)NCCCN2CCN(c3ccccc3F)CC2)c2ccccc21`, the EC50 was > 76.1 µM (inactive).
For the molecule `c1ccc(CN2CCN(c3ncccn3)CC2)cc1`, the EC50 was > 76.1 µM (inactive).
As for `COc1cc(Br)cc(CN2CCN(c3ncccn3)CC2)c1O`, the EC50 was > 76.1 µM (inactive).
Regarding `CC(=O)N1CCc2cc(C(=O)CN3CCN(c4cccc(Cl)c4)CC3)ccc21`, the EC50 is > 76.1 µM (inactive).
Take `Brc1cccc(CN2CCN(c3ncccn3)CC2)c1`: the EC50 was > 76.1 µM (inactive).
The same measure for `COc1ccc(CN2CCN(C(=O)c3ccco3)CC2)cc1OCc1ccccc1`: > 76.1 µM (inactive); for `Fc1ccc(F)c(CN2CCN(c3ncccn3)CC2)c1`: > 76.1 µM (inactive); for `CC1(C)C(C=C(Cl)Cl)C1C(=O)N1CCN(Cc2ccccc2)CC1` (stereo not drawn): > 76.1 µM (inactive).
Regarding `COc1cccc(OCC(O)CN2CCN(c3ccccn3)CC2)c1` (stereo not drawn), the EC50 was > 76.1 µM (inactive).
Consider `COc1cc(CN2CCN(c3ncccn3)CC2)cc(OC)c1`, for which the EC50 was > 76.1 µM (inactive).
As to `CN(c1ccc(C(=O)N2CCN(Cc3ccccc3)CC2)cc1)S(=O)(=O)c1ccc(Cl)cc1`, the EC50 was > 76.1 µM (inactive).
For `Cc1ccc(CN2CCN(c3ccccn3)CC2)s1`, the EC50 is > 76.1 µM (inactive).
In the case of `Cc1ccc(CN2CCN(c3ncccn3)CC2)o1`, the EC50 is > 76.1 µM (inactive).
With `Clc1ccccc1CN1CCN(c2ncccn2)CC1`, the EC50 is > 76.1 µM (inactive).
Consider `NC1CCc2cc(O)c(O)cc2C1` (stereo not drawn), for which the EC50 was > 76.1 µM (inactive).
For `COc1cccc(-n2cc(CNCc3cn(C)nc3-c3ccccc3F)cn2)c1`, the EC50 was > 76.1 µM (inactive).
`Cc1cccc(CN2CCN(c3ccccn3)CC2)c1`: the EC50 was > 76.1 µM (inactive).
As to `CC(COc1ccccc1)N1CCC(CO)(Cc2ccccc2)CC1` (stereo not drawn), the EC50 is > 76.1 µM (inactive).
